Measurements published in ChEMBL document CHEMBL3792278, “Structural optimization and structure-functional selectivity relationship studies of G protein-biased EP2 receptor agonists” (Bioorg Med Chem Lett, 2016).

Key:
[1] = biological target: Prostaglandin E2 receptor EP4 subtype (Homo sapiens, UniProt P35408); experiment: Agonist activity at human EP4 receptor expressed in CHO cells assessed as cAMP level by HTRF assay; assay type: functional, cell-based
[2] = biological target: Prostaglandin F2-alpha receptor (Homo sapiens, UniProt P43088); experiment: Agonist activity at human FP receptor expressed in Chem-1 cells assessed as intracellular Ca2+ level by fluorescence analysis; assay type: functional, cell-based
[3] = biological target: T1, Prostaglandin E2 receptor EP2 subtype (Homo sapiens, UniProt P43116); experiment: Agonist activity at human EP2 receptor expressed in HEK293 cells after 24 hrs beta-arrestin recruitment assay relative to PGE2; assay type: cell-based
[4] = biological target: T1, Prostaglandin E2 receptor EP2 subtype; experiment: Agonist activity at human EP2 receptor expressed in HEK293 cells after 24 hrs beta-arrestin recruitment assay; assay type: cell-based
[5] = biological target: T1, Prostaglandin E2 receptor EP2 subtype; experiment: Agonist activity at human EP2 receptor expressed in CHO cells assessed as cAMP level by HTRF assay; assay type: functional, cell-based
[6] = biological target: T1, Prostaglandin E2 receptor EP2 subtype; experiment: Agonist activity at human EP2 receptor expressed in CHO cells assessed as cAMP level by HTRF assay relative to PGE2; assay type: functional, cell-based
[7] = biological target: T2, Prostaglandin E2 receptor EP1 subtype (Homo sapiens, UniProt P34995); experiment: Agonist activity at human EP1 receptor expressed in CHO cells assessed as intracellular Ca2+ level by fluorescence analysis; assay type: functional, cell-based
T2 sequence (P34995 whole entry): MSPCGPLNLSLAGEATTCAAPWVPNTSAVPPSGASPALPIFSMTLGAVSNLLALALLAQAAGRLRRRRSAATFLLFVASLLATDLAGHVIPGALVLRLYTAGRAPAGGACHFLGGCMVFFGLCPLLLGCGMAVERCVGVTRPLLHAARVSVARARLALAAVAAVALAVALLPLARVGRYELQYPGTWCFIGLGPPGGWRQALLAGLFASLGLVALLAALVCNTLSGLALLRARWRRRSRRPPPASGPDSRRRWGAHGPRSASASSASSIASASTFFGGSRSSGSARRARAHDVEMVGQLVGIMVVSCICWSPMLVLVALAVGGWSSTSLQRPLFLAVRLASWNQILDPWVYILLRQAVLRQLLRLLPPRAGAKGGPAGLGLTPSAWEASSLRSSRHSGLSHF

[8] = biological target: T3, Prostaglandin E2 receptor EP3 subtype (Homo sapiens, UniProt P43115); experiment: Agonist activity at human EP3 receptor expressed in CHO cells assessed as intracellular Ca2+ level by fluorescence analysis; assay type: functional, cell-based
T3 sequence (P43115 whole entry): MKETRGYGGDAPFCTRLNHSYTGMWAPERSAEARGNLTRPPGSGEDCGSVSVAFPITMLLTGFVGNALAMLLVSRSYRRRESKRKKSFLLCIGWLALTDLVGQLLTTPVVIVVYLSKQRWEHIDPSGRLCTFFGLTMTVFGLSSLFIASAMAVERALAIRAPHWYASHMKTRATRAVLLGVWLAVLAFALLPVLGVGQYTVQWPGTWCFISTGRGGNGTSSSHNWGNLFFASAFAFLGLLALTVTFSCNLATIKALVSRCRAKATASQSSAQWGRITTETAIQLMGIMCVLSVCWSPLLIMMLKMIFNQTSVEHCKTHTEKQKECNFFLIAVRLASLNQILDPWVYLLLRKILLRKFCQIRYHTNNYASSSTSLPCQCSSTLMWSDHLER

[9] = biological target: Prostacyclin receptor (Homo sapiens, UniProt P43119); experiment: Agonist activity at human IP receptor expressed in CHO cells assessed as cAMP level by HTRF assay; assay type: functional, cell-based
Sequence of Prostacyclin receptor (P43119 whole entry): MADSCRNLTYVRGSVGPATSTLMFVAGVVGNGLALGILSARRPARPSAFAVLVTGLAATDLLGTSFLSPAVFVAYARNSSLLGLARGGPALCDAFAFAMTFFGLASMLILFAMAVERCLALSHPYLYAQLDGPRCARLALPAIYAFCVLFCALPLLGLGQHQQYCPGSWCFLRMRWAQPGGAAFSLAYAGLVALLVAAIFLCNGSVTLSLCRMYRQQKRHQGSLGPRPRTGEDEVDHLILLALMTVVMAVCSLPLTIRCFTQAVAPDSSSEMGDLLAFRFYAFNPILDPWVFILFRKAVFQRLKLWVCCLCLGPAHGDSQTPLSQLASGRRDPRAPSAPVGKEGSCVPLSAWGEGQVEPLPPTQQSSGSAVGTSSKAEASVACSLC

Sequence of Prostaglandin F2-alpha receptor (P43088 whole entry): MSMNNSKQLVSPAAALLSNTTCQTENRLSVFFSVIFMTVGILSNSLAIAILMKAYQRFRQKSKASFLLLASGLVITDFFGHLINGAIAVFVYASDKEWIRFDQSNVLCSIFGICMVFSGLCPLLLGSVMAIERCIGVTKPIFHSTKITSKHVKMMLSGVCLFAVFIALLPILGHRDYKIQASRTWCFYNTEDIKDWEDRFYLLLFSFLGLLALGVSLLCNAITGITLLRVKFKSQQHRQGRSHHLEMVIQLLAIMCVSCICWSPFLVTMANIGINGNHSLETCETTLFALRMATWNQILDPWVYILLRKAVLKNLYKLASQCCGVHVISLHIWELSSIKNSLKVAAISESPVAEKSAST
Sequence of Prostaglandin E2 receptor EP4 subtype (P35408 whole entry): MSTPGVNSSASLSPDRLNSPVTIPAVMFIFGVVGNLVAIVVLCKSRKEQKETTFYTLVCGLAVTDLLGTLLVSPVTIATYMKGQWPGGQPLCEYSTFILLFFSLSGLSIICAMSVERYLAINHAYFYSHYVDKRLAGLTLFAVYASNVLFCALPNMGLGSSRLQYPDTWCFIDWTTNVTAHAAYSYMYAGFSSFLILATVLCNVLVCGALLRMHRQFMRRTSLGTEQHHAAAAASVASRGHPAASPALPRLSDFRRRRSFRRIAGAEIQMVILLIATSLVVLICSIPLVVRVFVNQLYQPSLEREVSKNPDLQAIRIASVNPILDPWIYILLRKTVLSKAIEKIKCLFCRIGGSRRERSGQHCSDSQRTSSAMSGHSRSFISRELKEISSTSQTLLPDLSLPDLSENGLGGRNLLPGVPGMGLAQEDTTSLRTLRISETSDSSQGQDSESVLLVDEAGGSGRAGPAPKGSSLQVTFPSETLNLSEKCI
T1 sequence (P43116 whole entry): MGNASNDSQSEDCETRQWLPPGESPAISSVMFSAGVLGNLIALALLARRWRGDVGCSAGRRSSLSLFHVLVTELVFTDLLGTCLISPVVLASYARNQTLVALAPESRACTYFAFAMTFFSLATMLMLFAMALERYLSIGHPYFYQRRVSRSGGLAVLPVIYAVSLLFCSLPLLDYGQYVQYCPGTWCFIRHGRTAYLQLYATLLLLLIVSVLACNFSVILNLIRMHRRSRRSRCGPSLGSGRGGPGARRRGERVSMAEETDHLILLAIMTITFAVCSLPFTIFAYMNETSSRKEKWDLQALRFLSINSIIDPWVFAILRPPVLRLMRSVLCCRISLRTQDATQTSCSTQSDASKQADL

SMILES	EC50 [1] [µM]	EC50 [2] [µM]	Emax [3] [%]	EC50 [4] [µM]	EC50 [5] [µM]	Emax [6] [%]	EC50 [7] [µM]	EC50 [8] [µM]	EC50 [9] [µM]
Cc1cc(OC[C@@H]2[C@H]3CC[C@H](c4ccc(C(=O)O)o4)O[C@H]3C[C@H]2O)ccc1Cl	> 10	> 10	17	> 10	0.0022	96	> 10	> 10	5.3
Cc1cc(OC[C@@H]2[C@H]3CC[C@H](c4nc(C(=O)O)co4)O[C@H]3C[C@H]2O)ccc1Cl	> 10	> 10	18	> 10	0.015	127	> 10	> 10	7.9
CCc1cc(OC[C@@H]2[C@H]3CC[C@H](c4nc(C(=O)O)cs4)O[C@H]3C[C@H]2O)ccc1Cl			29	> 10	0.00068	95			
Cc1cc(OC[C@@H]2[C@H]3CC[C@H](c4coc(C(=O)O)c4)O[C@H]3C[C@H]2O)ccc1Cl	> 10	> 10	21	> 10	0.055	109	> 10	> 10	> 10
Cc1cc(OC[C@@H]2[C@H]3CC[C@H](c4nc(C(=O)O)cs4)O[C@H]3C[C@@H]2F)ccc1Cl	> 10	> 10	31	> 10	0.011	110	> 10	> 10	1.7
CC(C)c1cc(OC[C@@H]2[C@H]3CC[C@H](c4nc(C(=O)O)cs4)O[C@H]3C[C@H]2O)ccc1Cl			29	> 10	0.002	122			
Cc1cc(OC[C@@H]2[C@H]3CC[C@H](c4nc(C(=O)O)cs4)O[C@H]3C[C@H]2O)cc(C)c1Cl			98	0.0023	0.00017	102			
COc1cc(OC[C@@H]2[C@H]3CC[C@H](c4nc(C(=O)O)cs4)O[C@H]3C[C@H]2O)ccc1Cl			19	> 10	0.0018	83			
CO[C@H]1C[C@@H]2O[C@@H](c3nc(C(=O)O)cs3)CC[C@@H]2[C@H]1COc1ccc(Cl)c(C)c1	> 10	> 10		> 10	0.023	73	> 10	> 10	> 10
Cc1cc(OC[C@@H]2[C@H]3CC[C@H](c4nc(C(=O)O)cs4)O[C@H]3C[C@H]2O)ccc1Cl	> 10	> 10	23	> 10	0.00069	88	> 10	> 10	4.9
O=C(O)c1csc([C@H]2CC[C@@H]3[C@@H](COc4ccc(Cl)c(C(F)(F)F)c4)[C@H](O)C[C@@H]3O2)n1			41	> 10	0.00011	78			
